Assays:
HepG2 cells = experiment: Transfection of HepG2 cells with GpLuc mRNA, luminescence of supernatant (Example 3); format: cell-based; conditions: small amounts of lipidoid added to PB83, GpLuc mRNA, 24 h post transfection
Experimental: For luminescence analysis, a volume of 10 μL supernatant was transferred to a 96 well plate for GpLuc measurement. Then, coelenterazine working solution (100 μM) was prepared (1 mL coelenterazine stock solution (4.72 mM in EtOH) in 49 mL phosphate buffered saline supplemented with 5 mM NaCl, pH 7.2). A volume of 100 μL coelenterazine working solution was used as a substrate for GpLuc and measured after 5 seconds in a commercially available microplate reader.
The experiments were conducted as described in the previous Example, except that HepG2 cells were transfected instead of Sol8 cells. A volume of 0.2 mL HepG2 cells (10.000 cells) were seeded in a 96 well tissue culture plate. After removing the medium from each well, 100 μL RPMI 1640 medium (with 1% Penicillin and 1% Streptomycin, 1% L-Glutamin) was added to each well. Afterwards, HepG2 cells were transfected with 100 μL transfection mix (in triplicates) of polymer-lipidoid mRNA complexes and respective controls (in triplicates), and cells were incubated at 37° C. and 5% CO2 for 90 minutes. After incubation, 150 μL medium was exchanged with 150 μL fresh RPMI 1640 medium supplemented with 10% fetal calf serum. Twenty-four hours post transfection, 10 μL of supernatant of each well was extracted and used for further luminescence analysis.

[1] = system: differentiated Sol8 cells; experiment: Transfection of Sol8 muscle cells with GpLuc mRNA, luminescence of supernatant (Example 2); format: cell-based, C3H mouse; conditions: small amounts of lipidoid added to PB83, GpLuc mRNA (SEQ ID NO: 12), 24 h post transfection
Experimental: Sol8 is a myogenic cell line isolated by Daubas et al. from primary cultures of soleus muscle taken from the leg of a normal C3H mouse. A volume of 0.2 mL Sol8 cells (20.000 cells) were seeded in 96 well glass bottom plates (Softwell Hydrogel coated with collagen, elasticity E=12 kPa) on day 1. After removing the medium from each well, 100 μL DMEM medium (with 2% horse serum) was added to each well. Afterwards, on day 2, Sol8 cells were transfected with 100 μL transfection mix (in triplicates) of polymer-lipidoid complexes prepared according to Example 1) and respective controls (in triplicates), and cells were incubated at 37° C. and 5% CO2 for 120 minutes. After incubation, 150 μL medium was exchanged with 150 μL fresh DMEM medium supplemented with 10% fetal calf serum. Twenty-four hours post transfection, i.e. on day 3, 10 μL of supernatant of each well was extracted and used for further luminescence analysis, which was performed as described below. […]
For luminescence analysis, a volume of 10 μL supernatant was transferred to a 96 well plate for GpLuc measurement. […] A volume of 100 μL coelenterazine working solution was used as a substrate for GpLuc and measured after 5 seconds in a commercially available microplate reader.

Structure (SMILES) | transfection efficiency (GpLuc luminescence) (HepG2 cells) | transfection efficiency (GpLuc luminescence) [1]
CCCCCCCCCCC(O)C[N+](C)(C)CCN(CC[N+](C)(C)CC(O)CCCCCCCCCC)CC[N+](C)(C)CC(O)CCCCCCCCCC (centres unmarked) [3-C12-OH-cat] | profound increase of transfection efficiency | –
CCCCCCCCCCC(O)CNCCN(CCNCC(O)CCCCCCCCCC)CCNCC(O)CCCCCCCCCC (centres unmarked) [3-C12-OH] | profound increase of transfection efficiency | profound increase of transfection efficiency
CCCCCCCCCCCCNCCN(CCNCCCCCCCCCCCC)CCNCCCCCCCCCCCC [3-C12] | profound increase of transfection efficiency | profound increase of transfection efficiency
